In patent publication US20220280558A1, “MOLECULAR HYDROGEN-CONTAINING COMPOSITION FOR PREVENTING OR IMPROVING OSTEOPOROSIS” (MiZ Company Limited, priority 2021, published 2022):

Tested on: human osteoporosis
Test: Case 1: bone density and symptoms of a person with compression fractures
Format: in vivo
Conditions: human patient
From the text: In the present specification, bone density can be measured by an existing measuring method, for example, by dual-energy-x-ray absorptiometry (DXA) of the trunk bone.

[1] = hydrogen gas inhalation 1.5% to 2.0% by volume

Compound | bone density (baseline 74%, injection once every six months, 18 months later) | bone density (injection once every six months, August 2020) | bone density (injection once every six months, February 2020) | body feeling [1] | daily activity (weeding in the garden) [1] | feeling when waking up in the morning [1] | gait [1] | pain at the compression fracture sites in the lower back [1] | tiredness [1] | bone density (inhalation from November 2020, 1.5% to 2.0% by volume hydrogen, 30 mL/min, nightly, measured March 2021 (84% in August 2020))
denosumab [Pralia Subcutaneous Injection, reference compound] | exceeded 80% | 84% | 86% |  |  |  |  |  |  | 
[HH] [hydrogen gas, molecular hydrogen] |  |  |  | feeling that the body became light | weeding in the garden becoming easy | having a good feeling and feeling refreshed | improvement in the gait | improvement | feeling tired less easily | 92%
